Reference: publication PMC6458216, “In vitro reconstitution and characterisation of the oxidative D-xylose pathway for production of organic acids and alcohols” (AMB Express, 2019)

Experiments:
Assay type in all cases: biochemical
Cc XylC = target: T1, Cc XylC (Caulobacter vibrioides, UniProt Q9A9Z1); test: CD ([…] nm) and 1H-NMR lactone ring-opening assay; conditions: CD: 1 mM lactone, 10 mM Tris-HCl pH 6-8, 25 °C; NMR: 2 mM lactone, pH 6.8, 22 °C, 100 µM metal ions or EDTA
T1 construct: full length, untagged (C-terminal Strep-tag II removed), synthetic codon-optimised gene in E. coli BL21(DE3), DEAE purified, mainly monomer
T1 sequence (Q9A9Z1 whole entry): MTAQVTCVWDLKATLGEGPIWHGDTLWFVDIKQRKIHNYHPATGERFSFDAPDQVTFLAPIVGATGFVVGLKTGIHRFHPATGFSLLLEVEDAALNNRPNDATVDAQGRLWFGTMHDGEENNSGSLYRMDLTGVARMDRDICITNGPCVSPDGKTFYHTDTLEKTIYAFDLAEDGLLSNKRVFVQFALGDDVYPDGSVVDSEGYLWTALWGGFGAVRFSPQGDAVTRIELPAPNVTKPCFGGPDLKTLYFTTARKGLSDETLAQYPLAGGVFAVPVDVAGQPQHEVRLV

Ec FucO = target: T2, Ec FucO (Escherichia coli, UniProt P0A9S1); test: purified enzyme within 4-enzyme cascade, NADH oxidation at […] nm; conditions: glycolaldehyde formed by Ec YagE from 1 mM xylonolactone via cascade; 2 mM NADH, 50 mM Tris-HCl pH 7.0, 22 °C
T2 sequence (P0A9S1 1-382): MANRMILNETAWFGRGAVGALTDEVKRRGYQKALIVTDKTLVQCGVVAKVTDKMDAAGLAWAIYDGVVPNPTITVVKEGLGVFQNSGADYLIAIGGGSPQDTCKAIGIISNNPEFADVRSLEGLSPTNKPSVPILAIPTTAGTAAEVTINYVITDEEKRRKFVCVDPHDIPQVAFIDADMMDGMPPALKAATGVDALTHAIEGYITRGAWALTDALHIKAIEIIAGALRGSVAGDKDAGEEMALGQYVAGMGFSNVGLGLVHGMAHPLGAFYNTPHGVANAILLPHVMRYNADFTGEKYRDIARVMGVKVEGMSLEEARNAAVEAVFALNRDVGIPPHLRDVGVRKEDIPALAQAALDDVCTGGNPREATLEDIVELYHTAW

Ab AraE = Ab AraE (Azospirillum brasilense, UniProt Q1JUP4); test: NADH formation at […] nm, steady-state kinetics; conditions: 50 mM Tris-HCl pH 7.0, 2 mM NAD+, 1 mM DTT, glycolaldehyde 0-2 mM
Ab AraE, sequence (Q1JUP4 whole entry): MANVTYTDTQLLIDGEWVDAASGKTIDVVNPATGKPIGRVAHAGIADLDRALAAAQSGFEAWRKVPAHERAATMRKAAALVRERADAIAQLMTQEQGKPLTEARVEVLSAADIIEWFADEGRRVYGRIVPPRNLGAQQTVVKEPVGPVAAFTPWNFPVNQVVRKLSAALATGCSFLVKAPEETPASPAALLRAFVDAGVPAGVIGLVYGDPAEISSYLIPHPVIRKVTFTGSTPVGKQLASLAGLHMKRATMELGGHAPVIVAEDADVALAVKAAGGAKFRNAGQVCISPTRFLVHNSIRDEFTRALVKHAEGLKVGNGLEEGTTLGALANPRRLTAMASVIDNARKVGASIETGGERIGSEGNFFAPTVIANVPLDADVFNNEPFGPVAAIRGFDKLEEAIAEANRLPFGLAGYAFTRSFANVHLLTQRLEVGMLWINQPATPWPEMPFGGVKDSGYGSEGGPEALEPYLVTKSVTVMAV

Ec AldA = Ec AldA (Escherichia coli, UniProt P25553); test: NADH formation at […] nm, steady-state kinetics; conditions: 50 mM Tris-HCl pH 7.0, 2 mM NAD+, 1 mM DTT, glycolaldehyde 0-2 mM
Ec AldA, sequence (P25553 whole entry): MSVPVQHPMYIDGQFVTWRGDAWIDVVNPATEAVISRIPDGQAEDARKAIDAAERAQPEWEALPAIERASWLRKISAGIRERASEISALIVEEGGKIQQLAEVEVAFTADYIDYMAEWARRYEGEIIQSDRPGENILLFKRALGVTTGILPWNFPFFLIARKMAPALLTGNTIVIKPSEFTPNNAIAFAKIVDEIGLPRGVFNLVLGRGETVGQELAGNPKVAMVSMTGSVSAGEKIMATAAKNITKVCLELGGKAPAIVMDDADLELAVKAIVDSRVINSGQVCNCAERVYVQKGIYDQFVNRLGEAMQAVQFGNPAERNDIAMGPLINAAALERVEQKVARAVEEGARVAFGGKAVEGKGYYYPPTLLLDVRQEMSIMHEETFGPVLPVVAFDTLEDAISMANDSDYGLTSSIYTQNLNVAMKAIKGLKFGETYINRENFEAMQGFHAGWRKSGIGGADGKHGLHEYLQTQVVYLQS

Row | SMILES | CD (220 nm) and 1H-NMR lactone ring-opening assay (Cc XylC) | purified enzyme within 4-enzyme cascade, NADH oxidation at 340 nm (Ec FucO) | NADH formation at 340 nm, steady-state kinetics (Ab AraE) | NADH formation at 340 nm, steady-state kinetics (Ec AldA)
1 | O=C1O[C@H](CO)[C@H](O)[C@H]1O [D-xylono-1,4-lactone] | Cc XylC was able to open the xylonolactone without addition of any metal |  |  | 
2 | NC(=O)C1=CN([C@@H]2O[C@H](COP(=O)(O)OP(=O)(O)OC[C@H]3O[C@@H](n4cnc5c(N)ncnc54)[C@H](O)[C@@H]3O)[C@@H](O)[C@H]2O)C=CC1 [NADH] |  | the production of ethylene glycol was followed through generation of NAD^+ |  | 
3 | O=CCO [glycolaldehyde] |  | an increase of the enzyme concentration resulted in an increase in the production levels | we compare the glycolaldehyde dependent activity of Ec AldA and Ab AraE | we compare the glycolaldehyde dependent activity of Ec AldA and Ab AraE
